What was measured:
[1] = target: PRP Construct (signal peptide + 10 amino acids of Prion protein fused to HaloTag-HiBit) (Homo sapiens, UniProt P61619); assay: cell-based
[2] = target: PDCD1 Construct (signal peptide + 10 amino acids of Programmed Cell Death Receptor 1 fused to HaloTag-HiBit) (Homo sapiens, UniProt P61619); assay: HiBit assay, secretion of SP-HaloTag-HiBit fusion protein, PDCD1 construct; assay type: cell-based; settings: T-REx-293 cells, doxycycline-induced, Nano-Glo HiBiT Extracellular Detection
Sequence of PDCD1 Construct (signal peptide + 10 amino acids of Programmed Cell Death Receptor 1 fused to HaloTag-HiBit) (P61619 whole entry, the tested form may be a part): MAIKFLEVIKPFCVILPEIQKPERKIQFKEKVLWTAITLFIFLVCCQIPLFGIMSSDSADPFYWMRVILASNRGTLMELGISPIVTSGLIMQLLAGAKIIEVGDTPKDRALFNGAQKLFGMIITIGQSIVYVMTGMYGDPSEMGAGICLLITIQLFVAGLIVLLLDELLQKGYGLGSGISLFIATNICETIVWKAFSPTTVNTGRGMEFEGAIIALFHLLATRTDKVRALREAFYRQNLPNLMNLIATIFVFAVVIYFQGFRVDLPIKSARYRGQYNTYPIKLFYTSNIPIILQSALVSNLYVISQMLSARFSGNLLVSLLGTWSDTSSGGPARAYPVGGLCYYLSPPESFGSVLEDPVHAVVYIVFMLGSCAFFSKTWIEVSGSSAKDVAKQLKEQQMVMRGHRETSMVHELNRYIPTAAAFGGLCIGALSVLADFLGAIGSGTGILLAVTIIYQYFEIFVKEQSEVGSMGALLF

Sequence of PRP Construct (signal peptide + 10 amino acids of Prion protein fused to HaloTag-HiBit) (P61619 whole entry, looked up, the tested form may be a part): as the sequence (P61619 whole entry, the tested form may be a part) above

SMILES	IC50 [1] [µM]	IC50 [2] [µM]
C[C@H](OCc1ccncc1)C(=O)Nc1nc([C@H]2CCCN2c2ccccc2)cs1 [Compound 5, (S)—N-(4-((R)-1-phenylpyrrolidin-2-yl)thiazol-2-yl)-2-(pyridin-4-ylmethoxy)propanamide]	5 to 10	
C[C@@H](OCc1ccncc1)C(=O)Nc1nc([C@H]2CCCN2c2ccccc2)cs1 [Compound 4, (R)—N-(4-((R)-1-phenylpyrrolidin-2-yl)thiazol-2-yl)-2-(pyridin-4-ylmethoxy)propanamide]	10 to 30	
Cc1ccc(Nc2nc(C3CCCN3C)cs2)nc1 (centres unmarked) [Compound 46]	> 30	
CC(C)(C)c1nsc(NC(=O)c2cccn2Cc2ccncc2)n1 [Compound 50]		< 5
O=C(Nc1nc(/C=C/c2ccccc2)ns1)c1cc(F)cn1Cc1ccncc1 [Compound 49, (E)-4-fluoro-1-(pyridin-4-ylmethyl)-N-(3-styryl-1,2,4-thiadiazol-5-yl)-1H-pyrrole-2-carboxamide]		< 5
CN1CCCC1c1csc(Nc2ncccn2)n1 (centres unmarked) [Compound 47]	> 30	
CC(C)OC(C)(C)c1csc(NC(=O)NCc2ccncc2)n1 [Compound 17, 1-(4-(2-isopropoxypropan-2-yl)thiazol-2-yl)-3-(pyridin-4-ylmethyl)urea]	> 30	
CC(C)(C)C1CNC(NC(=O)c2cccn2Cc2ccncc2)=N1 (centres unmarked) [Compound 43]	5 to 10	< 5
CC(C)OC(C)(C)c1csc(NC(=O)OCCc2ccncc2)n1 [Compound 21, 2-(pyridin-4-yl)ethyl (4-(2-isopropoxypropan-2-yl)thiazol-2-yl)carbamate]	> 30	
CC(CNc1ccncc1)C(=O)Nc1nc([C@H]2CCCN2c2ccccc2)cs1 (stereo partly drawn) [Compound 7, 2-methyl-N-(4-((R)-1-phenylpyrrolidin-2-yl)thiazol-2-yl)-3-(pyridin-4-ylamino)propanamide]	10 to 30	
O=C(Nc1ccc(C(=O)c2ccccc2)cc1)Nc1nc([C@H]2CCCN2c2ccccc2)cs1 [Compound 23, (R)-1-(4-benzoylphenyl)-3-(4-(1-phenylpyrrolidin-2-yl)thiazol-2-yl)urea]	> 30	
CN1CCN(c2nsc(NC(=O)c3cc(F)cn3Cc3ccncc3)n2)CC1 [Compound 48, 4-fluoro-N-(3-(4-methylpiperazin-1-yl)-1,2,4-thiadiazol-5-yl)-1-(pyridin-4-ylmethyl)-1H-pyrrole-2-carboxamide]		> 30
CC(C)OC(C)(C)c1csc(Nc2ccc(C(=O)c3ccccc3)cc2)n1 [Compound 22, (4-((4-(2-isopropoxypropan-2-yl)thiazol-2-yl)amino)phenyl)(phenyl)methanone]	> 30	
O=C(NCc1ccncc1)Nc1nc([C@H]2CCCN2c2ccccc2)cs1 [Compound 11, (R)-1-(4-(1-phenylpyrrolidin-2-yl)thiazol-2-yl)-3-(pyridin-4-ylmethyl)urea]	> 30	
CC(C)OC(C)(C)c1csc(NC(=O)c2ccnn2CCc2ccncc2)n1 [Compound 24, N-(4-(2-isopropoxypropan-2-yl)thiazol-2-yl)-1-(2-(pyridin-4-yl)ethyl)-1H-pyrazole-5-carboxamide]		> 30
CC(C)(C)c1csc(Nc2ncccc2CCc2ccncc2)n1 [Compound 39]	10 to 30	

SMILES	IC50 [1] [µM]	IC50 [2] [µM]
O=C(CCOc1ccncc1)Nc1nc([C@H]2CCCN2c2ccccc2)cs1 [Compound 2, (R)—N-(4-(1-phenylpyrrolidin-2-yl)thiazol-2-yl)-3-(pyridin-4-yloxy)propanamide]	> 30	
O=C(Nc1nc(-c2ccccc2)ns1)c1cccn1Cc1ccncc1 [Compound 37]	5 to 10	< 5
CC(C)OC(C)(C)c1csc(NC(=O)[C@@H](C)OCc2ccncc2)n1 [Compound 14, (R)—N-(4-(2-isopropoxypropan-2-yl)thiazol-2-yl)-2-(pyridin-4-ylmethoxy)propanamide]	> 30	
Cc1ccc(Nc2nc(C3CCCN3Cc3cnc[nH]3)cs2)nc1 (centres unmarked) [Compound 45]	> 30	
CC(C)OC(C)(C)c1csc(Nc2nccc3ccn(Cc4ccncc4)c23)n1 [Compound 25, 4-(2-isopropoxypropan-2-yl)-N-(1-(pyridin-4-ylmethyl)-1H-pyrrolo[2,3-c]pyridin-7-yl)thiazol-2-amine]	10 to 30	5 to 10
CN(CCc1ccncc1)C(=O)Nc1nc([C@H]2CCCN2c2ccccc2)cs1 [Compound 6, (R)-1-methyl-3-(4-(1-phenylpyrrolidin-2-yl)thiazol-2-yl)-1-(2-(pyridin-4-yl)ethyl)urea]	> 30	
CC(C)OC(C)(C)c1csc(NC(=O)N(C)Cc2ccncc2)n1 [Compound 19, 3-(4-(2-isopropoxypropan-2-yl)thiazol-2-yl)-1-methyl-1-(pyridin-4-ylmethyl)urea]	> 30	
CC(C)OC(C)(C)c1csc(NC(=O)Nc2ccccc2Oc2ccccc2)n1 [Compound 18, 1-(4-(2-isopropoxypropan-2-yl)thiazol-2-yl)-3-(2-phenoxyphenyl)urea]	> 30	
O=C(c1ccccc1)c1ccc(Nc2nc([C@H]3CCCN3c3ccccc3)cs2)cc1 [Compound 13, (R)-phenyl(4-((4-(1-phenylpyrrolidin-2-yl)thiazol-2-yl)amino)phenyl)methanone]	> 30	
c1ccc(N2CCC[C@@H]2c2csc(Nc3ncccc3OCc3ccncc3)n2)cc1 [Compound 8, (R)-4-(1-phenylpyrrolidin-2-yl)-N-(3-(pyridin-4-ylmethoxy)pyridin-2-yl)thiazol-2-amine]	< 5	5 to 10
O=C(Nc1nc([C@H]2CCCN2c2ccccc2)cs1)OCCc1ccncc1 [Compound 1, 2-(pyridin-4-yl)ethyl (R)-(4-(1-phenylpyrrolidin-2-yl)thiazol-2-yl)carbamate]	> 30	
CC(C)OC(C)(C)c1csc(NC(=O)c2nccn2CCc2ccncc2)n1 [Compound 44]		> 30
Cc1cccc(Nc2nc(-c3ccc(-c4cccnc4)cc3)cs2)n1 [Compound 38]		> 30
CC(C)OC(C)(C)c1csc(NC(=O)N(C)CCc2ccncc2)n1 [Compound 20, 3-(4-(2-isopropoxypropan-2-yl)thiazol-2-yl)-1-methyl-1-(2-(pyridin-4-yl)ethyl)urea]	> 30	
CC(C)OC(C)(C)c1csc(NC(=O)[C@H](C)OCc2ccncc2)n1 [Compound 15, (S)—N-(4-(2-isopropoxypropan-2-yl)thiazol-2-yl)-2-(pyridin-4-ylmethoxy)propanamide]	> 30	
